From BindingDB's records for doi:10.3109/14756366.2012.688042 (Ondokuz Mayis University, 2013)

Legend:
Glutathione peroxidase 1 = target: T1, Glutathione peroxidase 1 (Homo sapiens, UniProt P07203); test: Glutathione Peroxidase Activity Assay; conditions: pH 7
T1 sequence (P07203 whole entry): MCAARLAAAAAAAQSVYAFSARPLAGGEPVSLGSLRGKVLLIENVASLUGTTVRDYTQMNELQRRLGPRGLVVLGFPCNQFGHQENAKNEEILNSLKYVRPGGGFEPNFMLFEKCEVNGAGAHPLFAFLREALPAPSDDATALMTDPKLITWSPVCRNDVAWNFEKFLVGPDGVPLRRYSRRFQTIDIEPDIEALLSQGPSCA
Procedure: Glutathione peroxidase was assayed in a l-ml system containing 0.1 M potassium phosphate buffer, pH 7.0, 0.2 mM NADPH, 1 i.u. glutathione reductase, 4 mM GSH,4 mM EDTA, 4 mM sodium azide. The reaction mixture was incubated at 37°C for 10 min after which 10 μl of 10 mM t-butyl hydroperoxide were added to start the reaction. No t-butyl hydroperoxide was added to the blank cuvette. The rate of reaction was measured at 37°C by following the decrease in the absorbance at 340 nm using a spectrophotometer.

[1] = target: T2, Microsomal glutathione S-transferase 1 (Homo sapiens, UniProt P10620); test: Glutathione S-transferase Activity Assay; conditions: pH 6.5
T2 sequence (P10620 whole entry): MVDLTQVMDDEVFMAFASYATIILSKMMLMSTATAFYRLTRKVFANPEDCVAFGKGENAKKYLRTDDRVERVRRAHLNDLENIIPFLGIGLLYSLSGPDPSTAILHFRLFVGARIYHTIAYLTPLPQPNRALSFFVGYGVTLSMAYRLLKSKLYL
Procedure: Enzymatic activity was determined spectrophotometrically by measuring the conjugation of CDNB with GSH. The 1 ml assay mixture contained 0.5 mM CDNB, 1 mMGSH, and 100 mM potassium phosphate buffer, pH 6.5. The rate of increase in absorbance at 340 nm was measured for 5 mm at 37°C against a blank containing thereaction mixture without enzyme.

[2] = target: T3, Glutathione reductase, mitochondrial (Homo sapiens, UniProt P00390); test: Glutathione Reductase Activity Assay; conditions: pH 8
T3 sequence (P00390 whole entry): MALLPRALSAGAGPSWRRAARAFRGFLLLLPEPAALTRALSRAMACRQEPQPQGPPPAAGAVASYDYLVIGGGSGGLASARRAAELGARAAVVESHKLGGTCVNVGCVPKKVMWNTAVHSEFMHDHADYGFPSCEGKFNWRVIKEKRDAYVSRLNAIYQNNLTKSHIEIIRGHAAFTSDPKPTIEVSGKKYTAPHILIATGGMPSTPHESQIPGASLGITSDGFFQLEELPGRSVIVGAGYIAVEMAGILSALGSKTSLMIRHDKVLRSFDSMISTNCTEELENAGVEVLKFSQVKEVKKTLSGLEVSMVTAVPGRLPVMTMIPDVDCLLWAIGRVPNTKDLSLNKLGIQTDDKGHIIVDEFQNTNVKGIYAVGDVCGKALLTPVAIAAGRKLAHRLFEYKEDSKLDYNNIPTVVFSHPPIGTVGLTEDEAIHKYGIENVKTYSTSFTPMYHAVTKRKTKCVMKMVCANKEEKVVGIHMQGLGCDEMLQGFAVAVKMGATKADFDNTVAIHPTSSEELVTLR
Procedure: Enzymatic activity was measured by Beutler's method with a Shimadzu Spectrophotometer UV-(1208), at 25°C. The assay system contained 100 mM Tris-HCl buffer pH 8.0, including 0.5 mM EDTA, 3.3 mM GSSG and 0.1 mM NADPH. One enzyme unit is defined as the oxidation of 1 μmol NADPH per min under the assay condition at 25°C.

Row | IC50 (Glutathione peroxidase 1) | Ki (Glutathione peroxidase 1) | IC50 [1] | Ki [1] | IC50 [2] | Ki [2] | Compound
1 | 48.6 µM | 34.1 µM | 61.8 µM | 35.4 µM | 21.3 µM | 17.3 µM | CO/N=C(\C(=O)N[C@@H]1C(=O)N2C(C(=O)O)=C(CSc3nc(=O)c(=O)[nH]n3C)CS[C@H]12)c1csc(N)n1 [(6R,7R)-7-{2-(2-Amino-thiazol-4-yl)-2-[(Z)-methoxyimino]-acetylamino}-3-(2-methyl-5,6-dioxo-1,2,5,6-tetrahydro-[1,2,4]triazin-3-ylsulfanylmethyl)-8-oxo-5-thia-1-aza-bicyclo[4.2.0]oct-2-ene-2-carboxylic acid]
2 | 313 µM | 245 µM | 484 µM | 267 µM | 48.4 µM | 28.7 µM | CCN1CCN(C(=O)N[C@@H](C(=O)N[C@@H]2C(=O)N3C(C(=O)O)=C(CSc4nnnn4C)CS[C@H]23)c2ccc(O)cc2)C(=O)C1=O [CEFOPERAZONE]
3 | 44.3 µM | 32.7 µM | 56.4 µM | 32.4 µM | 18.8 µM | 10.4 µM | CO/N=C(\C(=O)N[C@@H]1C(=O)N2C(C(=O)O)=C(COC(N)=O)CS[C@H]12)c1ccco1 [640/359]
4 | 186 µM | 121 µM | 278 µM | 165 µM | 39.7 µM | 22.8 µM | CO/N=C(\C(=O)N[C@@H]1C(=O)N2C(C(=O)O)=CCS[C@H]12)c1csc(N)n1 [Ceftizoxime]
